Entries after “also recorded” stand apart in the source; their conditions may differ.
Experiments:
[1] = test system: CART19 cells; experiment: CART19 proliferation in co-culture with irradiated JeKo-1 cells (absolute CD3+ T cell counts by flow cytometry); format: cell-based, human; conditions: for toxicity to CART19 cells: in vitro, concentrations up to 10 μM
Description: CART19 proliferation in the presence of vecabrutinib was evaluated. CART19 cells were cocultured with irradiated JeKo-1 tumor cells at a 1:1 ratio for 24 hours in the presence of 1 μM or 10 μM vecabrutinib. Control co-culture was treated with DMSO vehicle only. Absolute CD3+ T cell counts were measured by flow cytometry.
CART19 cells were cocultured with irradiated JeKo-1 tumor cells at a 1:1 ratio for 24 hours in the presence of 1 μM or 10 μM. Control co-culture was treated with DMSO only. Absolute CD3+ T cell counts were measured by flow cytometry.

[2] = test system: CD19-expressing JeKo-1 tumor cells; experiment: CART19-mediated killing of JeKo-1 tumor cells in in vitro co-culture (bioluminescence); format: cell-based, human
Description: CART19 cells and JeKo-1 tumor cells were cultured at a 1:1 ratio for 24 hours in the presence of 1 μM or 10 μM vecabrutinib. […] Control of untransduced (UTD) T cell/JeKo-1 co-culture in the presence of 1 μM or 10 μM vecabrutinib was used to determine any tumor cell killing induced by vecabrutinib in the absence of CART19 cells. The percentage of tumor cell killing was measured using bioluminescence imaging, with samples treated with D-luciferin prior to imaging. […] Control co-culture was treated with DMSO only. The percentage of tumor cell killing was measured as described above.

[3] = test system: CART19 cells; experiment: CART19 cell degranulation (CD107α by flow cytometry) in co-culture with irradiated JeKo-1 cells; format: cell-based, human; conditions: 1 μM or 10 μM, 1:1 ratio, 4 hours; FIG. 3A
Description: CART19 cells were cocultured with irradiated JeKo-1 tumor cells at a 1:1 ratio for 4 hours in the presence of 1 μM or 10 μM vecabrutinib. […] Untransduced T cell/JeKo-1 co-culture treated with 1 μM or 10 μM vecabrutinib were used as a negative control as the non-antigen-specific T cells were not expected to undergo degranulation in the presence of JeKo-1 target cells. CD107α was used as a marker to quantify degranulation, as this marker becomes part of the cellular membrane and accessible to surface staining with CD107α-specific antibody in degranulating cells. Following coculture, cells were fixed, permeabilized, attained and analyzed for CD107 levels by flow cytometry.

[4] = test system: CART19 cells; experiment: CART19 cell cytokine production in co-culture with JeKo-1 cells (38-multiplex of supernatants); format: cell-based, human; conditions: 1 μM or 10 μM, 1:1 ratio
Description: The effect of vecabrutinib treatment on CART19 cell cytokine production was also evaluated. CART19 cells were cocultured with irradiated JeKo-1 tumor cells at a 1:1 ratio for 3 days in the presence of 1 μM or 10 μM vecabrutinib. […] Untransduced T cell/JeKo-1 coculture treated with 1 μM or 10 μM vecabrutinib were used as a negative control as the non-antigen-specific T cells were not expected to undergo activation and cytokine production in the presence of JeKo-1 target cells. Supernatants were harvested and the levels of multiple cytokines and chemokines were analyzed with 38-multiplex (Millipore).

[5] = test system: JeKo-1 lymphoma xenograft; experiment: JeKo-1 lymphoma xenograft mouse model with CART19 cells; conditions: 50 mg/kg oral gavage twice daily for 4 weeks, in combination with CART19
Description: The impact of vecabrutinib on CART19 cell anti-tumor effects was evaluated using a JeKo-1 lymphoma xenograft mouse model. To establish the mouse model, NSG mice were inoculated with 1×10^6 luciferase^+ JeKo-1 tumor cells by intravenous injection at day −14. […] Treatment groups received either CART cells with DMSO vehicle or CART cells in combination with 50 mg/kg vecabrutinib. The control group received untransduced T cells with DMSO vehicle. Administration of vecabrutinib or vehicle commenced one day prior to CART19 administration (i.e., day −1), and was given by oral gavage. Untransduced or CART19 were infused by intravenous administration on day 0 at a dose of 1×10^6 cells per animal. Vecabrutinib and vehicle were administered by oral gavage twice daily over a period of 4 weeks. Mice were imaged weekly by IVIS to assess tumor burden. Blood samples were collected from the mice on a weekly basis and the level of circulating CART19 cells was measured by flow cytometry. Mouse weight was also measured on a weekly basis as a measure of treatment toxicity.

[6] = test system: pro-inflammatory cytokines in serum; experiment: Phase 1 clinical trial, serum cytokine panel in patients with B cell malignancies; format: in vivo, human; conditions: oral 20.5-410 mg twice daily, 4 weeks post-treatment vs pretreatment
Description: Human cancer patients having B cell malignancies were administered vecabrutinib in a Phase 1 clinical trial and a cytokine panel was used to evaluate cytokine levels in serum at 4 weeks following administration. Briefly, patients in the clinical trial had Chronic Lymphocytic Leukemia (CLL)/Small Lymphocytic Lymphoma (SLL) or Non Hodgkin's lymphoma (NHL) and had failed prior standard of care therapies. NHL indications included lymphoplasmacytoid lymphoma/Waldenstrom's macroglobulinemia (LPL/WM), mantle cell lymphoma (MCL), marginal zone lymphoma (MZL), diffuse large B-cell lymphoma of the activated B-cell subtype (DLBCL-ABC), and follicular lymphoma (FL). A group of 39 patients were orally administered a dose of 20.5 mg, 41 mg, 82 mg, 164 mg, 246 mg, 328 mg, or 410 mg of vecabrutinib as a capsule twice daily. Serum samples were collected from the patients prior to the start of treatment as 4-weeks post-treatment and analyzed by 38-multiplex (Millipore).

[7] = target: wild-type BTK (Homo sapiens, UniProt Q06187); conditions: Aslan, et al (2021); cited from earlier work
Chain of wild-type BTK (Q06187 whole entry): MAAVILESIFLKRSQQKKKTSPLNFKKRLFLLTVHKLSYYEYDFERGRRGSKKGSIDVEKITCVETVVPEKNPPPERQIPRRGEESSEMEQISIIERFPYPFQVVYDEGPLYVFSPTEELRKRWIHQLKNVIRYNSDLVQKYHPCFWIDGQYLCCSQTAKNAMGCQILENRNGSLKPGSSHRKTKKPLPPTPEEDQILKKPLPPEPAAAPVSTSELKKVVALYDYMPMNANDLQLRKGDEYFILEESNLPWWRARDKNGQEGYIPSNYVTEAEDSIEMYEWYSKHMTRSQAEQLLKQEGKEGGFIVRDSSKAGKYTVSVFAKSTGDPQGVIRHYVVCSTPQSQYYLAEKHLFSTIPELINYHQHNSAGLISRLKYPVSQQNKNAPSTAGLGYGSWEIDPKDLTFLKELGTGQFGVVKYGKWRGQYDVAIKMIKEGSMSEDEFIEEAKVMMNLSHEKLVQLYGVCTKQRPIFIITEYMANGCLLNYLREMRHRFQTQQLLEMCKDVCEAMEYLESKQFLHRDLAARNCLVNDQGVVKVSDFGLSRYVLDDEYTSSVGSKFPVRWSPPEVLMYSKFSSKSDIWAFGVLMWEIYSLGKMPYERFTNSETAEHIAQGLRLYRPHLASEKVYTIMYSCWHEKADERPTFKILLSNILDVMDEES

[8] = test system: mutant BTK; conditions: Aslan, et al (2021); cited from earlier work
[9] = test system: CLL patients expressing BTK^C481S; conditions: Allan, et al (2019); cited from earlier work

In the case of C=CC(=O)N1CCC[C@@H](n2nc(-c3ccc(Oc4ccccc4)cc3)c3c(N)ncnc32)C1 [ibrutinib, reference compound], the “toxicity to CART19 cells” value [1] is reported as “toxic; also recorded: dose-dependent toxicity”.
For NC(=O)[C@H]1CCN(c2ncnc(N)c2F)C[C@@H]1N1CCC[C@@H](Nc2cc(Cl)cc(C(F)(F)F)c2)C1=O [vecabrutinib, (3R,3′R,4′S)-1′-(6-amino-5-fluoropyrimidin-4-yl)-3-((3-chloro-5-(trifluoromethyl)phenyl)amino)-2-oxo-[1,3′-bipiperidine]-4′-carboxamide], the “CART19-mediated killing of Jeko-1 lymphoma cells as compared to ibrutinib” value ([2]; 0.625.1 CART19 to tumor cell ratio, 24 hours, normalized to BTK inhibitor only, FIG. 1B) was “significantly potentiated”, the “killing of CD19-expressing JeKo-1 tumor cells” value ([2]; CART19:JeKo-1 1:1, 24 hours, 1 μM or 10 μM, vs DMSO control, FIG. 1A) was “significantly increased” and the “CART proliferation compared to the DMSO control” value ([1]; 1 μM or 10 μM, 1:1 ratio, 24 hours, FIG. 2A) was “comparable”. The “CART19 proliferation compared to control” value ([1]; 10 μM, 1:1 ratio, 24 hours, FIG. 2A/2B) was “increased”, the “toxicity to CART19 cells” value [1] was “well-tolerated; also recorded: not toxic” and the “CART19 degranulation (CD107α)” value [3] was “did not impair”. The IL-6 in supernatant ([4]; FIG. 3B) was “downregulation”, the IL-10 in supernatant ([4]; FIG. 3C) was “downregulation” and the MIP-1β in supernatant ([4]; FIG. 3D) was “downregulation”. For the same compound, the “antitumor activity (tumor burden by IVIS) compared to CART19 alone” value ([5]; FIG. 4A) was “sustained antitumor activity”, the “CART19 proliferation (circulating CART19 cells by flow cytometry)” value ([5]; FIG. 4B) was “increased” and the “serum level of IP-10” value ([6]; FIG. 6A) was “significantly decreased”. The “serum level of MIP-1β” value ([6]; FIG. 6B) was “significantly decreased”, the “serum level of TNFα” value ([6]; FIG. 6C) was “significantly decreased” and the “inhibitory activity against wild-type BTK” value [7] was “maintain inhibitory activity”. For the same compound, the “inhibitory activity against mutant BTK” value [8] was “maintain inhibitory activity” and the “efficacy in CLL patients expressing BTK^C481S” value [9] was “has efficacy”.
